From patent US8507506B2, “Theophylline derivative inhibits osteoporosis” (Kaohsiung Medical University, priority 2011, dated 2013)
Marks after values point to notes of the source that are not given here.

Columns and labels:
Type in all cases: cell-based
[1] = test system: Cathepsin K mRNA in RAW264.7 cells; experiment: RT-PCR, RANKL-induced mRNA expression of Cathepsin K; settings: for RANKL-induced mRNA expression level of Cathepsin K: RAW264.7 cells, 24 hours, CTL 100%, mean ± SEM
Excerpt: (§1) The culture medium was discarded. […] [table] f) Running • A.

[2] = test system: c-Fos mRNA in RAW264.7 cells; experiment: RT-PCR, RANKL-induced mRNA expression of c-Fos; settings: for RANKL-induced mRNA expression level of c-Fos: RAW264.7 cells, 24 hours, CTL 100%, mean ± SEM
Excerpt: as §1

[3] = test system: MMP-2 protein in RAW264.7 cells; experiment: Western blot, amount of MMP-2 protein induced by RANKL; settings: RANKL 24 hours, FIG. 18
Procedure: KMUP-1 influences there major up-stream signal transduction pathways which are related to RANK/RANKL. Western blot is used to estimate the amount of matrix metalloproteinase (MMP)-2 and MMP-9 which are related to the dissolution of osteoclast-like cells, and the enzyme activity of MMP-2 and MMP-9 are estimated via Gelatin Zymography. […] The proteins were collected by scraping and were centrifuged (13,000 rpm, 4° C., 30 minutes). The supernatant was stored in an eppendorf in −80° C. • c) Concentrations of the proteins were examined by Bio-Red DC Protein Assay. After knowing the concentrations, the proteins were diluted to specific concentrations by adding ddH2O. One forth volume of the diluted proteins of sample buffer was added into the diluted proteins and was put in boiled water for 5 min and then was chilled on ice for 5 minutes. After short time centrifugation, the diluted proteins could be injected into wells of a gel. The gel was run at 100 V for 10 minutes until the proteins were driven to the intersection between a loading gel and a running gel. Then, the voltage was swopped to 200 V for 40 minutes. • d) A PVDF membrane was immersed in Methanol for 2 minutes. After two washes in ddH2O, the membrane was immersed in transfer buffer for 15 minutes. A SDS-PAGE was put on the membrane, and wet paper was flanked them. […]

[4] = test system: TRAP mRNA in RAW264.7 cells; experiment: RT-PCR, RANKL-induced mRNA expression of TRAP; settings: for RANKL-induced mRNA expression level of TRAP: RAW264.7 cells, 24 hours, CTL 100%, mean ± SEM
Excerpt: as §1

[5] = test system: c-Fos protein in RAW264.7 cells; experiment: Western blot, expression of c-Fos induced by RANKL; settings: 7.5 μM and 10 μM, RANKL 24 hours, FIG. 12
Procedure: (§2) The proteins were collected by scraping and were centrifuged (13,000 rpm, 4° C., 30 minutes). The supernatant was stored in an eppendorf in −80° C. • c) Concentrations of the proteins were examined by Bio-Red DC Protein Assay. After knowing the concentrations, the proteins were diluted to specific concentrations by adding ddH2O. One forth volume of the diluted proteins of sample buffer was added into the diluted proteins and was put in boiled water for 5 min and then was chilled on ice for 5 minutes. After short time centrifugation, the diluted proteins could be injected into wells of a gel. The gel was run at 100 V for 10 minutes until the proteins were driven to the intersection between a loading gel and a running gel. Then, the voltage was swopped to 200 V for 40 minutes. • d) A PVDF membrane was immersed in Methanol for 2 minutes. After two washes in ddH2O, the membrane was immersed in transfer buffer for 15 minutes. A SDS-PAGE was put on the membrane, and wet paper was flanked them. The proteins were transferred to the PVDF membrane using a semi-dry transfer at 20 V for 30 minutes. • e) The band of the PVDF membrane was trimmed and was added by suitable amount of blocking buffer (5% skim milk in washing buffer) and then was shaken for 1 hour in room temperature to block non specific bindings. Then, the band was covered by a diluted 1° antibody overnight in 4° C. […]

[6] = test system: IL-1β secretion by RAW264.7 cells; experiment: ELISA, RANKL-induced secretion of IL-1β; settings: RAW264.7, ELISA, FIG. 6
Procedure: (§3) Under RANKL stimulation, mononuclear RAW264.7 cells can secrete pro-inflammatory cytokines such as TNF-α, IL-1, IL-6, etc. ELISA is used to measure that KMUP-1 influences RANKL to induce the secretion of pro-inflammatory cytokines. […] 10^5 cells were plated per well in 24-well plates. […] After 24 hours reaction, the reaction fluid was centrifuged (13,000 rpm, 4° C., 20 minutes), and then the supernatant was tasted by ELISA kit (R&D system and eBioscience™) to detect the amount of TNF-α, IL-1β, IL-6, and IL-10. The experimental process is followed with the instructions of the kit.

[7] = test system: IL-10 secretion by RAW264.7 cells; experiment: ELISA, amount of IL-10; settings: RAW264.7, ELISA, increasing dose, FIG. 7(B)
Procedure: as §3

[8] = test system: NFATc1 protein in RAW264.7 cells; experiment: Western blot, expression of NFATc1 induced by RANKL; settings: 5 μM, 7.5 μM and 10 μM, RANKL 24 hours, FIG. 13
Procedure: as §2

[9] = 10 ng/ml RANKL, summary of Table 1

Cn1c(=O)c2c(ncn2CCN2CCN(c3ccccc3Cl)CC2)n(C)c1=O [KMUP-1, 7-[2-[4-(2-Chlorophenyl)piperazin-1-yl]ethyl] theophylline]
effect on mRNA expression of Cathepsin K induced by RANKL (in words) [1, 9]: not obviously inhibits
RANKL-induced mRNA expression level of Cathepsin K ([1]; RANKL 10 ng/ml + KMUP-1 1 μM): 304 ± 7.8%
RANKL-induced mRNA expression level of Cathepsin K ([1]; RANKL 10 ng/ml + KMUP-1 2.5 μM): 305 ± 5.9%
RANKL-induced mRNA expression level of Cathepsin K ([1]; RANKL 10 ng/ml + KMUP-1 5 μM): 312 ± 6.2%^
RANKL-induced mRNA expression level of Cathepsin K ([1]; RANKL 10 ng/ml + KMUP-1 7.5 μM): 321.5 ± 10.2% ^
RANKL-induced mRNA expression level of Cathepsin K ([1]; RANKL 10 ng/ml + KMUP-1 10 μM): 245 ± 8.5% ^b
effect on mRNA expression of c-Fos induced by RANKL (in words) [2, 9]: inhibits the mRNA expression
RANKL-induced mRNA expression level of c-Fos ([2]; RANKL 10 ng/ml + KMUP-1 1 μM): 105.4 ± 8.1%
RANKL-induced mRNA expression level of c-Fos ([2]; RANKL 10 ng/ml + KMUP-1 2.5 μM): 100.3 ± 4.7%
RANKL-induced mRNA expression level of c-Fos ([2]; RANKL 10 ng/ml + KMUP-1 5 μM): 84.5 ± 5.2% ^b
RANKL-induced mRNA expression level of c-Fos ([2]; RANKL 10 ng/ml + KMUP-1 7.5 μM): 67.1 ± 4.5% ^b
RANKL-induced mRNA expression level of c-Fos ([2]; RANKL 10 ng/ml + KMUP-1 10 μM): 73.1 ± 6.3% ^b
amount of MMP-2 protein induced by RANKL [3]: can efficiently inhibit the amount of MMP-2 and MMP-9 proteins
effect on mRNA expression of TRAP induced by RANKL (in words) [4, 9]: inhibits the mRNA expression
RANKL-induced mRNA expression level of TRAP ([4]; RANKL 10 ng/ml + KMUP-1 1 μM): 422.4 ± 24.8%
RANKL-induced mRNA expression level of TRAP ([4]; RANKL 10 ng/ml + KMUP-1 2.5 μM): 427.7 ± 39.3%
RANKL-induced mRNA expression level of TRAP ([4]; RANKL 10 ng/ml + KMUP-1 5 μM): 359.9 ± 20.7% ^b
RANKL-induced mRNA expression level of TRAP ([4]; RANKL 10 ng/ml + KMUP-1 7.5 μM): 293.8 ± 30.1% ^b
RANKL-induced mRNA expression level of TRAP ([4]; RANKL 10 ng/ml + KMUP-1 10 μM): 259.3 ± 18.3% ^b
expression of c-Fos induced by RANKL [5]: can efficiently inhibit it
RANKL-induced secretion of IL-1 [6]: presents a dose dependent inhibition phenomenon
amount of anti-inflammatory cytokine IL-10 [7]: can raise the amount of anti-inflammatory cytokines, IL-10
expression of NFATc1 induced by RANKL [8]: can efficiently inhibit the expression of NFATc1 induced by RANKL
